Where only a bound is given, the exact number is not on record here.

Test [1] has as its target T1, Tyrosine-protein phosphatase non-receptor type 9 (Homo sapiens, UniProt P43378).
T1 sequence (P43378 whole entry): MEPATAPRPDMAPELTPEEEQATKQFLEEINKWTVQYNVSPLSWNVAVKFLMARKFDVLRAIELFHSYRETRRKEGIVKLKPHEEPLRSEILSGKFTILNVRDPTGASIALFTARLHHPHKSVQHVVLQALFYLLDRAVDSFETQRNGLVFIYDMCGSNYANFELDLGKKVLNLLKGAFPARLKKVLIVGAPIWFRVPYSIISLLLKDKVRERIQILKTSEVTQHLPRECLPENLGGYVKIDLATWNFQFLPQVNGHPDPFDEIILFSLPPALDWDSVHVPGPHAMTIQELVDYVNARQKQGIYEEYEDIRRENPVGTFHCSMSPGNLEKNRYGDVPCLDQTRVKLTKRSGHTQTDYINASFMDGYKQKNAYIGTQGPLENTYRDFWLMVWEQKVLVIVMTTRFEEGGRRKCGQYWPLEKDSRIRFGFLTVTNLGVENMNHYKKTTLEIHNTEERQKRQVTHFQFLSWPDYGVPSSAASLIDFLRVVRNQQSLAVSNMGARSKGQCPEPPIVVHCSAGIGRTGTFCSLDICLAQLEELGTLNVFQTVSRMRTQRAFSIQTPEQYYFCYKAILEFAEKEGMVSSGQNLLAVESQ
Kind of test: Inhibition of His-tagged PTP-MEG2 (unknown origin) expressed in Escherichia coli BL21 cells using para-nitrophenyl phosphate as substrate incubated for 5 to 10 mins by microplate reader based spectrophotometric analysis.

In test [2] the target is T2, Dual specificity protein phosphatase CDC14A (Homo sapiens, UniProt Q9UNH5).
T2 sequence (Q9UNH5 whole entry): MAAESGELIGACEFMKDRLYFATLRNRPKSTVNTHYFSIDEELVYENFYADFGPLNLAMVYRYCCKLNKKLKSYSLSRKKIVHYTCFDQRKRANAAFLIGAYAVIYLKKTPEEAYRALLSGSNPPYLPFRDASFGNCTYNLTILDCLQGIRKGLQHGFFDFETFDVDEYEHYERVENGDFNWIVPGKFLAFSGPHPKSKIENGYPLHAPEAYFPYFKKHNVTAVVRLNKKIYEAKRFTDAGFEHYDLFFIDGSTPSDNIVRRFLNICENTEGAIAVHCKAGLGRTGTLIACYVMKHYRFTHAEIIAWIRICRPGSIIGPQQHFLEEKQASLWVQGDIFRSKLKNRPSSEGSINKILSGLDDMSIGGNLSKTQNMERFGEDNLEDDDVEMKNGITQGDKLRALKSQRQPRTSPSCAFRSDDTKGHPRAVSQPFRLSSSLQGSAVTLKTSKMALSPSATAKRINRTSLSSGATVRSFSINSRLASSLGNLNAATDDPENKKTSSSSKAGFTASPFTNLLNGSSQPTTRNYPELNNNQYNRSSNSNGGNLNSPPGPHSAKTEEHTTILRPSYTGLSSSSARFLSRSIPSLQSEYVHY
Kind of test: Inhibition of His-tagged CDC14A (unknown origin) expressed in Escherichia coli BL21 cells using para-nitrophenyl phosphate as substrate incubated for 5 to 10 mins by microplate reader based spectrophotometric analysis.

Test [3] concerns the target T3, Dual specificity protein phosphatase 6 (Homo sapiens, UniProt Q16828).
T3 sequence (Q16828 whole entry): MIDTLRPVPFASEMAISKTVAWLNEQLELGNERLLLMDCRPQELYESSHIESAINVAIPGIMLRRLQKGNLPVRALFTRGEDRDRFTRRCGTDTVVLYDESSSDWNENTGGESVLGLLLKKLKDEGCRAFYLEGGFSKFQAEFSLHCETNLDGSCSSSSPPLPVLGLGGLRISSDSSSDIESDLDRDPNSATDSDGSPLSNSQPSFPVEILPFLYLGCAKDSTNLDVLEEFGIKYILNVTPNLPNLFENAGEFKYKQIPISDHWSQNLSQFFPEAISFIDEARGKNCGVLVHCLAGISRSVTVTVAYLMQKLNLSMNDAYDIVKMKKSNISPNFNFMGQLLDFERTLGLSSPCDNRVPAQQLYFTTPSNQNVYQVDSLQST
Nature of the test: Inhibition of His-tagged MKP3 (unknown origin) expressed in Escherichia coli BL21 cells using para-nitrophenyl phosphate as substrate incubated for 5 to 10 mins by microplate reader based spectrophotometric analysis.

Test [4] concerns the target Receptor-type tyrosine-protein phosphatase epsilon (Homo sapiens, UniProt P23469). Nature of the test: Inhibition of His-tagged PTPepsilon (unknown origin) expressed in Escherichia coli BL21 cells using para-nitrophenyl phosphate as substrate incubated for 5 to 10 mins by microplate reader based spectrophotometric analysis.

Sequence of Receptor-type tyrosine-protein phosphatase epsilon (P23469 whole entry): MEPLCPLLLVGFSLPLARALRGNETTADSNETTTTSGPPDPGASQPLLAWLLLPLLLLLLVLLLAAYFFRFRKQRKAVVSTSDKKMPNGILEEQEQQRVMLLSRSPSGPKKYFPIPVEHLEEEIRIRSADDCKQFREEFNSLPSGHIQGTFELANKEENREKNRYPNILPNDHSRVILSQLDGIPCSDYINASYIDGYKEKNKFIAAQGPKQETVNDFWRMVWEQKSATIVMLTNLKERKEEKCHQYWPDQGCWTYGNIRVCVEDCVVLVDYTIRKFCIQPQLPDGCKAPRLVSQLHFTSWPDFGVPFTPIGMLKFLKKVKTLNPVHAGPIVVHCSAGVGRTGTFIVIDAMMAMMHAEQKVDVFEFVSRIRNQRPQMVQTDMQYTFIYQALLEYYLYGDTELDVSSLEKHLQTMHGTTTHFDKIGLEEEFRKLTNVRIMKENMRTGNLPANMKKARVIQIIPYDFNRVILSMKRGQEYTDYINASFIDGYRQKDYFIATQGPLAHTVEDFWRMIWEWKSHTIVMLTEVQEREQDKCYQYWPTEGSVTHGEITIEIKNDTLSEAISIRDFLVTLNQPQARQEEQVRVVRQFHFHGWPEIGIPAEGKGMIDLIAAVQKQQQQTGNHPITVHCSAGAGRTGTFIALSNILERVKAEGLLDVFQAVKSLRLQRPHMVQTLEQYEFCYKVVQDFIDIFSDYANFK

With `O=C(Nc1ccc(OCc2ccccc2)c(Cl)c1)C(c1ccccc1)S(=O)(=O)O` (centres undefined), the IC50 in test [1], in test [2], in test [3] and in test [4] was above 200 µM throughout.

`O=C(Nc1nc2ccc([N+](=O)[O-])cc2s1)C(c1ccccc1)S(=O)(=O)O` (centres undefined): the 50% inhibitory concentration (IC50) in test [1], in test [2], in test [3] and in test [4] was above 100 µM throughout.

`O=C(Nc1cc(C(F)(F)F)cc(C(F)(F)F)c1)C(c1ccccc1)S(=O)(=O)O` (centres undefined): the 50% inhibitory concentration (IC50) in test [1], in test [2], in test [3] and in test [4] was above 200 µM throughout.

With `Cc1c(Br)cc(NC(=O)C(c2ccccc2)S(=O)(=O)O)cc1Br` (centres undefined), the concentration for half-maximal inhibition (IC50) in test [2], in test [3] and in test [4] was above 200 µM each time.

Take `O=C(Nc1ccc(-n2ccnc2)cc1)C(c1ccccc1)S(=O)(=O)O` (centres undefined): the IC50 in test [1], in test [2], in test [3] and in test [4] was above 100 µM each time.

Source of the values: ChEMBL document CHEMBL4715770, “Inhibition of Low Molecular Weight Protein Tyrosine Phosphatase by an Induced-Fit Mechanism” (J Med Chem, 2016).
